Assay results: patent publication US6974681B1, “Cell culture performance with vanadate” (Immunex Corporation, priority 2002, dated 2005)
Where “and” joins values, the source holds several entries; their conditions need not be identical. Identical values can stand only once.

How the values were obtained:
[1] = test system: CHO cells expressing huTNFR-Fc; experiment: Cell concentration and viability (hemacytometer, trypan blue dye exclusion) of cultures expressing huTNFR-Fc with inducing agents; format: cell-based, Chinese Hamster; conditions: day 5, 31° C.
Protocol: (§1) A second experiment was performed to test the effects of sodium orthovanadate on specific production of the recombinant polypeptide huTNFR-Fc, expressed from cells when compared to the same cells grown without vanadate. Flasks were inoculated at 2×10^6 cells/ml and were either grown without additional compounds or with sodium butyrate at 0.5 mM or sodium butyrate with sodium orthovanadate at 20 μM. Flasks were set up in an incubator at 31° C. Measurements for cell concentration and viability were taken using a hemacytometer and the trypan blue dye exclusion method and the results are shown in Table 2. Production of huTNFR-Fc was measured by standard ELISA.

[2] = test system: CHO cells expressing huTNFR-Fc; experiment: Production of huTNFR-Fc measured by standard ELISA; format: cell-based, Chinese Hamster; conditions: NaButyrate 0.5 mM, culture without inducing agent normalized to 100%
Protocol: as §1

[3] = test system: Chinese Hamster Ovary (CHO) cell line genetically engineered to produce huTNFR:Fc; experiment: Dose response of vanadate in shake flask cultures (viable cell density, viability); format: cell-based; conditions: day 5, shake flask, serum-free medium
Protocol: In this experiment, the effect of adding various concentrations of vanadate was tested in mammalian cell shake flask cultures. A Chinese Hamster Ovary (CHO) cell line that had been genetically engineered to produce huTNFR:Fc (a soluble form of the human tumor necrosis factor alpha receptor extracellular domain fused to an Fc polypeptide from an immunogolublin see in U.S. Pat. No. 5,945,397) was grown in serum-free medium. A dose response analysis was performed to determine an optimal dose for vanadate.

[4] = test system: Recombinant CHO Cells; experiment: Effect of vanadate and reduced IGF-1 on recombinant CHO cells; format: cell-based, Chinese Hamster; parameters: cells/ml: scale not given here
Protocol: (§2) Vanadate can also reduce the requirement for growth factors to maintain recombinant cell viability. […] At 5 ng/L with vanadate, IGF-1 is sufficient to maintain the same viability of recombinant polypeptide producing cells as 100 μg/L IGF-1 in the absence of vanadate.

[5] = test system: recombinant cell culture (expressing huTNFR-Fc); experiment: Bioreactor culture (balanced feed experiment) with reduced IGF-1 plus vanadate, FIG. 1; format: cell-based; conditions: 25 µg/L IGF-1 with 20 μM sodium orthovanadate compared to 100 µg/L IGF-1 without vanadate
Protocol: FIG. 1. Addition of sodium orthovanadate to a recombinant cell culture (expressing huTNFR-Fc) reduces the requirement for IGF-1 to maintain viability in a balanced feed experiment. […]
as §2
The results from these experiments show how adding vanadate, in this case orthovanadate, can be applied in mammalian cell culture for a number of purposes. Cell viability is increased in cultures having 20 μM orthovanadate compared to cells grown without orthovanadate over a five day period (FIG. 1). In short, adding vanadate, such as orthovanadate, helps to create a more efficient mammalian cell culture process by reducing cell death, reducing the requirement of growth factors in the cell culture and increasing secreted polypeptide production.

[6] = with sodium orthovanadate (+), IGF-1 5 ng/L
[7] = with sodium orthovanadate (+), IGF-1 100 μg/L
[8] = IGF-1 5 ng/L, without sodium orthovanadate (−)
[9] = IGF-1 100 μg/L, without sodium orthovanadate (−)

CCCC(=O)[O-].[Na+] [NaButyrate, sodium butyrate]
% Viability ([1]; NaButyrate 0.5 mM): 78% | VCD, ×10^6 ([1]; NaButyrate 0.5 mM): 5.547 ×10^6 and 5.067 ×10^6 | Specific Productivity [2]: 161% and 153% | Titer [2]: 140% and 125%

[Na+].[Na+].[Na+].[O]=[V]([O-])([O-])[O-] [Vanadate, sodium orthovanadate]
% Viability ([3]; 10 uM vanadate): 80% and 89% | VCD, ×10^6 ([3]; 10 uM vanadate): 5.102 ×10^6 and 6.796 ×10^6 | % Viability ([3]; 20 uM vanadate): 90% | VCD, ×10^6 ([3]; 20 uM vanadate): 5.8 ×10^6 | % Viability ([3]; 35 uM vanadate): 87% and 90% | VCD, ×10^6 ([3]; 35 uM vanadate): 5.142 ×10^6 and 5.184 ×10^6 | % Viability ([3]; 50 uM vanadate): 83% and 81% | VCD, ×10^6 ([3]; 50 uM vanadate): 4.136 ×10^6 and 3.625 ×10^6 | % Viability ([1]; sodium butyrate 0.5 mM with sodium orthovanadate 20 μM (0.02 mM)): 95% | % viable [4, 6]: 73% | cells/ml [4, 6]: 4.916 cells/ml | % viable [4, 7]: 90% | cells/ml [4, 7]: 6.806 cells/ml | cell viability ([5]; after four days): improved | cell survival ([5]; after six days): markedly more cell survival

IGF-1: insulin like growth factor (IGF-1), growth factor added to the medium
% viable [4, 8]: 58% | cells/ml [4, 8]: 3.936 cells/ml | % viable [4, 9]: 74% | cells/ml [4, 9]: 5.825 cells/ml
